Measured values published in patent US11246931B2, “Active pharmaceutical ingredient carrier and production method of the same” (Tokuyama Corporation, priority 2017, dated 2022).

Experiment: Elution test, paddle method of the Japanese Pharmacopoeia (elution rate by HPLC)
Assay type: physicochemical
Conditions: 37±0.5° C., 75 rpm; for Elution rate (%) 10 min: 10 min after addition; for Elution rate (%) 60 min: 60 min after addition; for Elution rate (%) 120 min: 120 min after addition
Experimental: The elution test was performed according to the paddle method in the Japanese Pharmacopoeia the 17th edition. Specifically, the test solution was set to 900 mL of the elution test solution No. 1 of the Japanese Pharmacopoeia, the temperature was set to 37±0.5° C., the rotation speed was set to 75 rpm, the sample to be tested was loaded, and then about 1 mL was sampled at regular intervals, filtered through a syringe filter, and then subjected to HPLC analysis to determine the peak area of the active pharmaceutical ingredient. The obtained area was compared to the peak area of the active pharmaceutical ingredient at the elution rate of 100% to calculate the elution rate (%).
The elution rate is a value obtained by performing HPLC analysis with 200 mg of an IBP crystal all dissolved in 900 mL of the test solution, taking the obtained area as the elution rate of 100%, adding the active pharmaceutical ingredient or the active pharmaceutical ingredient carrier to the eluate, then performing sampling overtime, performing filtering and HPLC analysis to calculate the area, and comparing the area to the value of the elution rate of 100%.
An active pharmaceutical ingredient carrier (corresponding to 200 mg of an active pharmaceutical ingredient) (0.66 g) was weighed, and subjected to the elution test according to the paddle method in the Japanese Pharmacopoeia elution test method using the elution test solution No. 1 (pH 1.2). The temperature of the test solution was 37±0.5° C., and the rotation speed was 75 rpm. Sampling was performed at 5 minutes, 10 minutes, 15 minutes, 30 minutes, and then once every 15 minutes until 120 minutes after addition of the active pharmaceutical ingredient carrier, the obtained sample was immediately filtered using a syringe filter, and the elution rate (%) was calculated as described above from the peak area of the active pharmaceutical ingredient by high performance liquid chromatography (HPLC) with a UV detector.
The elution test of an IBP crystal was performed in the same manner as described above except that an ibuprofen active pharmaceutical ingredient (IBP crystals) was used instead of the active pharmaceutical ingredient carrier.
In the same manner as in the elution test, the elution test of the obtained active pharmaceutical ingredient carrier or the ezetimibe active ingredient (an ETB crystal) was performed. This test was performed using the elution test solution No. 1 (pH 1.2) same as that described above and the elution test solution No. 2 (pH 6.8).
In the same manner as described above, the elution test of the obtained active pharmaceutical ingredient carrier or the celecoxib active ingredient (a CXB crystal) was performed using the elution test solution No. 1 (pH 1.2) or the elution test solution No. 2 (pH 6.8).
In the same manner as described above, the elution test of the obtained active pharmaceutical ingredient carrier or the azilsartan active ingredient (an AZL crystal) was performed using the elution test solution No. 1 (pH 1.2).

[1] = elution test solution No. 1 (pH 1.2), 900 mL
[2] = elution test solution No. 2 (pH 6.8)

Row | Elution rate (%) 10 min [1] [%] | Elution rate (%) 60 min [1] [%] | Elution rate (%) 120 min [1] [%] | Elution rate (%) 10 min [2] [%] | Elution rate (%) 60 min [2] [%] | Elution rate (%) 120 min [2] [%] | Structure (SMILES)
1 | 6.1 | 8.4 | 8.4 | 6.6 | 8.3 | 8.2 | O=C1[C@H](CC[C@H](O)c2ccc(F)cc2)[C@@H](c2ccc(O)cc2)N1c1ccc(F)cc1 [ETB crystal, ezetimibe]
2 | 1.1 | 6.0 | 10.1 |  |  |  | CC(C)Cc1ccc(C(C)C(=O)O)cc1 (stereo not drawn) [IBP crystal, ibuprofen]
3 | 0.58 | 4.7 | 7.4 |  |  |  | CCOc1nc2cccc(C(=O)O)c2n1Cc1ccc(-c2ccccc2-c2nc(=O)o[nH]2)cc1 [AZL crystal, azilsartan]
